Reference: the supplement of paper PMC11061612

Experiments:
Test in all cases: combination Emax (second highest fraction inhibited in the dose matrix, 72 h); higher = more inhibition; extreme values may be limits of the assay
[1] = test system: CAL-78 (Chondrosarcoma)
In short: (§1)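 Bliss excess equals the observed combination effect minus the expected value EA + EB − EA·EB, where EA and EB are the effects of each agent alone. Combination Emax is the second-highest inhibition within the matrix. Inhibition was scaled from CellTiter-Glo 2.0 luminescence, with 0 set by vehicle wells and 1 by blank wells, after 72 hours of two-drug dosing of cells plated in 1536-well plates.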

[2] = test system: CFPAC-1 (Pancreatic Carcinoma)
In short: as §1

[3] = test system: COR-L23 (Non-Small Cell Lung Carcinoma)
In short: as §1

[4] = test system: CTV-1 (T-Lymphoblastic Leukemia)
In short: as §1

[5] = test system: DB (B-Cell Non-Hodgkin's Lymphoma)
In short: as §1

[6] = test system: DSH1 (Bladder Carcinoma)
In short: as §1

[7] = test system: EM-2 (Chronic Myelogenous Leukemia)
In short: as §1

[8] = test system: ES7 (Ewing's Sarcoma)
In short: as §1

[9] = test system: HCC2157 (Breast Carcinoma)
In short: as §1

[10] = test system: HT-29 (Colorectal Carcinoma)
In short: as §1

[11] = test system: J82 (Bladder Carcinoma)
In short: as §1

[12] = test system: KARPAS-620 (Plasma Cell Myeloma)
In short: as §1

[13] = test system: KM-H2 (Hodgkin's Lymphoma)
In short: as §1

[14] = test system: LU-99A (Non-Small Cell Lung Carcinoma)
In short: as §1

[15] = test system: MDA-MB-231 (Breast Carcinoma)
In short: as §1

[16] = test system: NCI-H2369 (Mesothelioma)
In short: as §1

[17] = test system: RH-1 (Ewing's Sarcoma)
In short: as §1

[18] = test system: SNU-C5 (Colorectal Carcinoma)
In short: as §1

[19] = test system: SUIT-2 (Pancreatic Carcinoma)
In short: as §1

[20] = test system: U-266 (Plasma Cell Myeloma)
In short: as §1

Row | SMILES | combination Emax [1] | combination Emax [2] | combination Emax [3] | combination Emax [4] | combination Emax [5] | combination Emax [6] | combination Emax [7] | combination Emax [8] | combination Emax [9] | combination Emax [10] | combination Emax [11] | combination Emax [12] | combination Emax [13] | combination Emax [14] | combination Emax [15] | combination Emax [16] | combination Emax [17] | combination Emax [18] | combination Emax [19] | combination Emax [20]
1 | Cc1c2c(nn1C)CSCc1cc(n(C)n1)CSc1cc(c3ccccc3c1)OCCCc1c(C(=O)O)n(C)c3c-2c(Cl)ccc13 [AZD5991] + Cn1cnc2c(F)c(Nc3ccc(Br)cc3Cl)c(C(=O)NOCCO)cc21 [Selumetinib] (first compound max 1 µM, 7x7, partner max 3 µM) | 0.717 | 0.322 | 0.31 | 0.187 | 1 | 0.489 | 0.609 | 0.759 | 0.982 | 0.706 | 0.197 | 1 | 0.191 | 0.379 | 0.4 | 0.151 | 0.52 | 0.456 | 0.285 | 0.985
2 | Cc1cc2ncnn2cc1Nc1ncc2c(n1)n(C1CCOCC1)c(=O)n2C [AZD7648] + C=CCn1c(=O)c2cnc(Nc3ccc(N4CCN(C)CC4)cc3)nc2n1-c1cccc(C(C)(C)O)n1 [AZD1775] (first compound max 10 µM, partner max 1 µM) | 0.458 | 0.444 | 0.36 | 0.97 | 0.786 | 0.463 | 0.964 | 0.541 | 0.899 | 0.816 | 0.244 | 0.597 | 0.933 | 0.563 | 0.434 | 0.314 | 1 | 0.609 | 0.656 | 0.697
3 | Cc1cc2ncnn2cc1Nc1ncc2c(n1)n(C1CCOCC1)c(=O)n2C [AZD7648] + CCN(CCO)CCCOc1ccc2c(Nc3cc(CC(=O)Nc4cccc(F)c4)[nH]n3)ncnc2c1 [AZD2811] (first compound max 10 µM, 7x7, partner max 1 µM) | 0.335 | 0.281 | 0.0476 | 0.375 | 0.601 | 0.362 | 0.878 | 0.855 | 0.783 | 0.265 | 0.126 | 0.554 | 0.209 | 0.53 | 0.477 | 0.235 | 0.952 | 0.295 | 0.0971 | 0.331
4 | Cc1cc2ncnn2cc1Nc1ncc2c(n1)n(C1CCOCC1)c(=O)n2C [AZD7648] + CN(C)CCCOc1ccc(-c2ccc3ncc4c(c3c2)n(C2CCOCC2)c(=O)n4C)cn1 [AZD0156] (first compound max 10 µM, 7x7, partner max 1 µM) | 0.173 | 0.235 | 0.0702 | 0.262 | 0.551 | 0.286 | 0.349 | 0.433 | 0.478 | 0.247 | 0.104 | 0.468 | 0.158 | 0.511 | 0.42 | 0.198 | 0.127 | 0.337 | 0.109 | 0.226
5 | Cc1cc2ncnn2cc1Nc1ncc2c(n1)n(C1CCOCC1)c(=O)n2C [AZD7648] + C[C@@H]1COCCN1C2=NC(=NC(=C2)C3(CC3)[S@](=N)(=O)C)C4=C5C=CNC5=NC=C4 [AZD6738] (first compound max 10 µM, 7x7, partner max 10 µM) | 0.469 | 0.356 | 0.577 | 0.864 | 0.54 | 0.736 | 0.957 | 0.766 | 0.842 | 0.808 | 0.31 | 0.539 | 0.774 | 0.681 | 0.605 | 0.25 | 0.894 | 0.751 | 0.611 | 0.508
6 | Cc1cc2ncnn2cc1Nc1ncc2c(n1)n(C1CCOCC1)c(=O)n2C [AZD7648] + O=C(c1cc(Cc2n[nH]c(=O)c3ccccc23)ccc1F)N1CCN(C(=O)C2CC2)CC1 [Olaparib] (first compound max 10 µM, 7x7, partner max 10 µM) | 0.252 | 0.197 | 0.212 | 0.279 | 0.451 | 0.272 | 0.351 | 0.846 | 0.413 | 0.0989 | 0.351 | 0.394 | 0.349 | 0.55 | 0.266 | 0.0731 | 0.23 | 0.24 | 0.205 | 0.335
7 | NC1(C(=O)N[C@@H](CCO)c2ccc(Cl)cc2)CCN(c2ncnc3[nH]ccc23)CC1 [Capivasertib] + CC(=O)c1c(C)c2cnc(Nc3ccc(N4CCNCC4)cn3)nc2n(C2CCCC2)c1=O [Palbociclib] (first compound max 10 µM, 7x7, partner max 10 µM) | 0.542 | 0.519 | 0.442 | 0.897 | 0.728 | 0.62 | 0.384 | 0.655 | 1 | 0.577 | 0.452 | 0.781 | 0.513 | 0.502 | 0.577 | 0.259 | 0.391 | 0.567 | 0.552 | 0.254
8 | NC1(C(=O)N[C@@H](CCO)c2ccc(Cl)cc2)CCN(c2ncnc3[nH]ccc23)CC1 [Capivasertib] + CC(C)n1c(=O)n(C)c2cnc3cc(F)c(-c4ccc(OCCCN5CCCCC5)nc4)cc3c21 [AZD1390] (first compound max 10 µM, 7x7, partner max 0.3 µM) | 0.414 | 0.235 | 0.37 | 0.547 | 0.386 | 0.615 | 0.426 | 0.446 | 0.999 | 0.345 | 0.392 | 0.775 | 0.222 | 0.407 | 0.334 | 0.222 | 0.333 | 0.416 | 0.139 | 0.139
9 | NC1(C(=O)N[C@@H](CCO)c2ccc(Cl)cc2)CCN(c2ncnc3[nH]ccc23)CC1 [Capivasertib] + CCN(CCO)CCCOc1ccc2c(Nc3cc(CC(=O)Nc4cccc(F)c4)[nH]n3)ncnc2c1 [AZD2811] (first compound max 10 µM, 7x7, partner max 1 µM) | 0.512 | 0.319 | 0.474 | 0.636 | 0.635 | 0.668 | 0.877 | 0.86 | 1 | 0.427 | 0.482 | 0.798 | 0.362 | 0.559 | 0.349 | 0.231 | 0.981 | 0.501 | 0.177 | 0.312
10 | NC1(C(=O)N[C@@H](CCO)c2ccc(Cl)cc2)CCN(c2ncnc3[nH]ccc23)CC1 [Capivasertib] + COc1nnc2ccc(N3CCC(c4ccc(OCCN5CCN(C)C(=O)[C@H]5C)cc4)CC3)nn12 [AZD5153] (first compound max 10 µM, 7x7, partner max 1 µM) | 0.489 | 0.531 | 0.552 | 1 | 0.669 | 0.941 | 0.958 | 0.811 | 1 | 0.753 | 0.632 | 0.897 | 0.546 | 0.665 | 0.703 | 0.268 | 0.699 | 0.665 | 0.535 | 0.38
11 | NC1(C(=O)N[C@@H](CCO)c2ccc(Cl)cc2)CCN(c2ncnc3[nH]ccc23)CC1 [Capivasertib] + C[C@@H]1COCCN1C2=NC(=NC(=C2)C3(CC3)[S@](=N)(=O)C)C4=C5C=CNC5=NC=C4 [AZD6738] (first compound max 10 µM, 7x7, partner max 10 µM) | 0.663 | 0.567 | 0.707 | 0.902 | 0.424 | 0.848 | 0.973 | 0.889 | 1 | 0.834 | 0.65 | 0.757 | 0.879 | 0.63 | 0.74 | 0.338 | 0.97 | 0.811 | 0.493 | 0.365
12 | NC1(C(=O)N[C@@H](CCO)c2ccc(Cl)cc2)CCN(c2ncnc3[nH]ccc23)CC1 [Capivasertib] + Cn1cnc2c(F)c(Nc3ccc(Br)cc3Cl)c(C(=O)NOCCO)cc21 [Selumetinib] (first compound max 10 µM, 7x7, partner max 10 µM) | 0.452 | 0.491 | 0.609 | 0.852 | 0.422 | 0.954 | 0.771 | 0.448 | 1 | 0.783 | 0.413 | 0.96 | 0.292 | 0.709 | 0.751 | 0.231 | 0.317 | 0.656 | 0.646 | 0.694
13 | Cc1nc(Nc2ncc(C(=O)Nc3c(C)cccc3Cl)s2)cc(N2CCN(CCO)CC2)n1 [Dasatinib] + CC(=O)Nc1cccc(-n2c(=O)n(C3CC3)c(=O)c3c(Nc4ccc(I)cc4F)n(C)c(=O)c(C)c32)c1 [Trametinib] (first compound max 2 µM, 7x7, partner max 1 µM) | 0.474 | 0.847 | 0.85 | 1 | 0.28 | 0.505 | 0.861 | 0.294 | 0.423 | 0.981 | 0.276 | 0.645 | 0.234 | 0.943 | 0.832 | 0.277 | 0.08 | 0.571 | 0.671 | 0.832
